Experiment [1] concerns lasered (hypertensive) eyes of conscious cynomolgus monkeys. In words: Acute IOP response in lasered (hypertensive) eyes of conscious cynomolgus monkeys. The settings on record: 30 ug, one 30 μL aliquot topical to right eye. It counts as in vivo. The protocol:
Intraocular pressure (IOP) can be determined with an Alcon Pneumatonometer after light corneal anesthesia with 0.1% proparacaine. Eyes are washed with saline after each measurement. After a baseline IOP measurement, test compound is instilled in one 30 μL aliquot to the right eyes only of nine cynomolgus monkeys. Vehicle is instilled in the right eyes of six additional animals. Subsequent IOP measurements are taken at 1, 3, and 6 hours.

For experiment [2], the target named is T1, ROCK 2 (Homo sapiens, UniProt O75116).
T1 construct: purchased Molecular Devices, Sunnyvale, Calif
In words: Rho kinase assay (IMAP ROCK-II kit, fluorescence polarization). The class given is biochemical. Conditions: substrate 200 nM, ATP 10 μM, 60 min at 23° C. In general terms: Fluorescence polarisation rises when a labelled molecule tumbles more slowly, as on binding a larger partner.
Procedure: (§1) The rho kinase assays were performed using a Biomek 2000 Robotic Workstation (Beckman Instruments, Palo Alto, Calif.) in a 96-well plate format. The assay was performed utilizing the IMAP ROCK-I and ROCK-II kits (Molecular Devices, Sunnyvale, Calif.) as follows. […] The substrate, enzyme, and ATP dilutions were made with the reaction buffer provided by the vendor. Test compounds were diluted in 10:10 DMSO-ethanol (vol/vol). For the actual assay, the various components were added into black, clear bottom, 96-well plates (Costar, Corning, N.Y.) in a final volume of 20μl per well. After the enzyme reaction (60 min at 23° C.), 60 μl of the binding solution was added per well and incubated for an additional 30 minutes in the dark at 23° C. Fluorescence polarization of the reaction mixtures was then measured on the Analyst™ HT instrument (Molecular Devices, Sunnyvale, Calif.).

Experiment [3] concerns the target ROCK 1 (Homo sapiens, UniProt Q13464). In words: Rho kinase assay (IMAP ROCK-I kit, fluorescence polarization).
Procedure: as §1

SMILES strings stand for the structures. Where a name gives a salt, the structure may show the parent alone.

Chain of ROCK 1 (Q13464 whole entry, species assumed): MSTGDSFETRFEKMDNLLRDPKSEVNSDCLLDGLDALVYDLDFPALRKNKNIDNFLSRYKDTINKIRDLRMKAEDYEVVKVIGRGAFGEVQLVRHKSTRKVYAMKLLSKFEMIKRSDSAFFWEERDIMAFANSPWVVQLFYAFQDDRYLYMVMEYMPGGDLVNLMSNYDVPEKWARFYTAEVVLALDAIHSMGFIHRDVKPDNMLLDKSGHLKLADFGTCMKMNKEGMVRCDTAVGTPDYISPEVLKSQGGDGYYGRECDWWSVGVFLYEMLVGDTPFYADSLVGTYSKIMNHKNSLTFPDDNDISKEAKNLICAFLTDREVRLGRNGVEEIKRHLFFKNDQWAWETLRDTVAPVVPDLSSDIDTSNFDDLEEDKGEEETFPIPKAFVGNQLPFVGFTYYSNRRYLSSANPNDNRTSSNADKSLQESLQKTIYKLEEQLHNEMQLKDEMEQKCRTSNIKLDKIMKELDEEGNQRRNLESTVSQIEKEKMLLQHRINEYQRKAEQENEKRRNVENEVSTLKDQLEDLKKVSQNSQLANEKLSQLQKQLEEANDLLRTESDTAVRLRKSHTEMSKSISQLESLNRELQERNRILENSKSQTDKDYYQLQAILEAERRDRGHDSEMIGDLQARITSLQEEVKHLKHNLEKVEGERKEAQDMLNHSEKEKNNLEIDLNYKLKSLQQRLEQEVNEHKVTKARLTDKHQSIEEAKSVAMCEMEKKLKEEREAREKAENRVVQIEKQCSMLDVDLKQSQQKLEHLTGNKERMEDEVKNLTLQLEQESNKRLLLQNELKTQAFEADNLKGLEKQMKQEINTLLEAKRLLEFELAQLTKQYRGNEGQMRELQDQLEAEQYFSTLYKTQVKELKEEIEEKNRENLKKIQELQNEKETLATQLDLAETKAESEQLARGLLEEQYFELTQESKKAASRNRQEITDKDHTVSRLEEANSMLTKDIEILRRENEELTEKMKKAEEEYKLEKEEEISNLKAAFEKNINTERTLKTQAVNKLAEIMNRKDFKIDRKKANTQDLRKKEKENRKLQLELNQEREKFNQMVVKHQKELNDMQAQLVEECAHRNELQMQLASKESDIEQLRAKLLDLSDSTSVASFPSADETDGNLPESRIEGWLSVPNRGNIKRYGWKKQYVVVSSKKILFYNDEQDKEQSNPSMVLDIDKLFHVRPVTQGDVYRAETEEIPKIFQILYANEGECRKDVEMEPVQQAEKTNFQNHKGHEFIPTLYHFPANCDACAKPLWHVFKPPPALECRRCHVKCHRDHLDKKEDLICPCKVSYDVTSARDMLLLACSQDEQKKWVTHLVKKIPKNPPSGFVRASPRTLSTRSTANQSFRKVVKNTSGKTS
T1 sequence (O75116 whole entry, species assumed): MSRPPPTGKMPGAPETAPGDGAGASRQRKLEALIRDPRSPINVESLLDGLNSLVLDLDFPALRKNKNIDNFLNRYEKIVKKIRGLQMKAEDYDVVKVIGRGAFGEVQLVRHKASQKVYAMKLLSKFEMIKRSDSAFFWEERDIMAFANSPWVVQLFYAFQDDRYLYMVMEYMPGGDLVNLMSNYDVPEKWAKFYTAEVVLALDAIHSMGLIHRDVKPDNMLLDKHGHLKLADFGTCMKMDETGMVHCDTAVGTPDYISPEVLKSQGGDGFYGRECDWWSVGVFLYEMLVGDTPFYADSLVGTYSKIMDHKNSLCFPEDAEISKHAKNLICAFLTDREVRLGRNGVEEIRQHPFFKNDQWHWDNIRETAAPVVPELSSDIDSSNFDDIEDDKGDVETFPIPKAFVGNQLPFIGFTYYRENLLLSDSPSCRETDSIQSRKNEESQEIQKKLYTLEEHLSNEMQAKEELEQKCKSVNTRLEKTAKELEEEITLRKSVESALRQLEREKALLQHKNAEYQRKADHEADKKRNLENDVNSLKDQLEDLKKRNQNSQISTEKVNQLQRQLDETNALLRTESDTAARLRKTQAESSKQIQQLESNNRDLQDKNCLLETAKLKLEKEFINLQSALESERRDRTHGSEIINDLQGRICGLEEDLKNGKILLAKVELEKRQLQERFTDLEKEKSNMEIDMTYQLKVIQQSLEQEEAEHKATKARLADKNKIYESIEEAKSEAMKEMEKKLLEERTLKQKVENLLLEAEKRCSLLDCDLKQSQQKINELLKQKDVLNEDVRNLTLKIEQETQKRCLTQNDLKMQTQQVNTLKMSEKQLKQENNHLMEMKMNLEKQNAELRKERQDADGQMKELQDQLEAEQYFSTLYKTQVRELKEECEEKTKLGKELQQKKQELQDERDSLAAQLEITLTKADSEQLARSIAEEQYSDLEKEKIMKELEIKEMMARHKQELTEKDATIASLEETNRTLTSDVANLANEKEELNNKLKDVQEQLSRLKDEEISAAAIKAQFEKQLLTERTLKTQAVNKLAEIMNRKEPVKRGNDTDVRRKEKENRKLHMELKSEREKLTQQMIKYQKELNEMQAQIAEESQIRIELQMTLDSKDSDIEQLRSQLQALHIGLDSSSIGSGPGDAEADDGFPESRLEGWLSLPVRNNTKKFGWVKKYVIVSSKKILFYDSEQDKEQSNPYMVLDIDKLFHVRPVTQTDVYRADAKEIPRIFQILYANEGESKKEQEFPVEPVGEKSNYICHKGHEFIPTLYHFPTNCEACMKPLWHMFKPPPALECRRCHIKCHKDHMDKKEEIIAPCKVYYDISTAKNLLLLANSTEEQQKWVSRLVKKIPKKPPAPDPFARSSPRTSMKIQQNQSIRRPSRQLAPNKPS

As for `Cc1n[nH]c2ccc(-c3cnc4ccc(N5CCCNCC5)nn34)cc12` [Example 55, 3-(3-Methyl-1H-indazol-5-yl)-6-perhydro-1,4-diazepin-1-yl-imidazo[1,2-b]pyridazine trihydrochloride], the “IOP % Change” value is given as 1.0% in experiment [1] (1 hr after dosing), −21.6% in experiment [1] (3 hrs after dosing) and −22.0% in experiment [1] (6 hrs after dosing). Also, the results for the “IOP Change mmHg” value in experiment [1] (1 hr after dosing), in experiment [1] (3 hrs after dosing) and in experiment [1] (6 hrs after dosing) were 1.0 mmHg, −8.7 mmHg and −8.9 mmHg, respectively. The half-inhibitory concentration (IC50) in experiment [2] stood at 0.011 µM; in experiment [3] it was 0.0088 µM.

For `CCCC/C=C/c1cnc2ccc(NCCCCN(C)C)nn12` [Example 46, (E)-N^1-(3-(Hex-1-enyl)imidazo[1,2-b]pyridazin-6-yl)-N^4,N^4-dimethylbutane-1,4-diamine], the IC50 in experiment [2] was 8.2 µM; in experiment [3], 5 µM.

Take `CCCCC#Cc1cnc2ccc(NCCCN3CCOCC3)nn12` [Example 26, 3-(Hex-1-ynyl)-N-(3-morpholinopropyl)imidazo[1,2-b]pyridazin-6-amine hydrochloride]: the half-inhibitory concentration (IC50) in experiment [2] stood at 5.8 µM; in experiment [3] it was 9 µM.

In general, IC50 refers to the concentration needed to halve the response being measured.

(Values after US7820670B2 (Alcon Research, Ltd., priority 2006, dated 2010).)
